# According to article PMC8842224 (Journal of Medicinal Chemistry, 2022):
# Like-named read-outs stand apart in the source and are kept apart here.
# Tests used:
# [1] = molecular target: human A2AAR (Homo sapiens, UniProt P29274)
# [2] = molecular target: T1, human A1AR (Homo sapiens, UniProt P30542); settings: for Exp absolute binding affinity (ΔGbind): experimental, A1AR
# T1 sequence (P30542 1-326): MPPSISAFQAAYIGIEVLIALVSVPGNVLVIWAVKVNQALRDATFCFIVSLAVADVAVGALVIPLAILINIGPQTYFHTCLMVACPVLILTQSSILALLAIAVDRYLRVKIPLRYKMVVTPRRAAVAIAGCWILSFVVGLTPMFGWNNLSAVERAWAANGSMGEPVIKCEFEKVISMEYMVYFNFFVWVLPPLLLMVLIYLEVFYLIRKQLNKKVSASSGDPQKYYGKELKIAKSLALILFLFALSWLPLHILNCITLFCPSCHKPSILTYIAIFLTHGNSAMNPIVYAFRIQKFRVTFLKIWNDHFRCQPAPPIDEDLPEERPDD
# [3] = molecular target: T2, human A2BAR (Homo sapiens, UniProt P29275); settings: read-out: hA2B Ki; displacement of specific [3H]DPCPX binding, human HEK-293 cells, ± SEM, n = 3
# T2 sequence (P29275 1-332): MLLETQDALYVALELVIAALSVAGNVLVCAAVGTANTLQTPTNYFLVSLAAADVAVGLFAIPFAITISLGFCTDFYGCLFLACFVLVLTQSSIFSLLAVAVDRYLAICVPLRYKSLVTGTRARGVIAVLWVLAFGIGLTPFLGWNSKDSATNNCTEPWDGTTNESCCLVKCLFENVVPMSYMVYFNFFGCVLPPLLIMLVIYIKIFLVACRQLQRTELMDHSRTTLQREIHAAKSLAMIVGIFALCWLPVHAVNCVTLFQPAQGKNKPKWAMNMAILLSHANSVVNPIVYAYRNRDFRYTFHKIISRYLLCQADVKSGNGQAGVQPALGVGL
# [4] = read-out: hA2A Ki, displacement of specific [3H]ZM241385 binding, human HeLa cells, ± SEM, n = 3
# [5] = read-out: hA1 Ki, displacement of specific [3H]DPCPX binding, human CHO cells, ± SEM, n = 3
# [6] = read-out: ki_a1, supplementary csv, unit inferred
# [7] = read-out: ki_a2a, supplementary csv, unit inferred
# Chain of human A2AAR (P29274 whole entry): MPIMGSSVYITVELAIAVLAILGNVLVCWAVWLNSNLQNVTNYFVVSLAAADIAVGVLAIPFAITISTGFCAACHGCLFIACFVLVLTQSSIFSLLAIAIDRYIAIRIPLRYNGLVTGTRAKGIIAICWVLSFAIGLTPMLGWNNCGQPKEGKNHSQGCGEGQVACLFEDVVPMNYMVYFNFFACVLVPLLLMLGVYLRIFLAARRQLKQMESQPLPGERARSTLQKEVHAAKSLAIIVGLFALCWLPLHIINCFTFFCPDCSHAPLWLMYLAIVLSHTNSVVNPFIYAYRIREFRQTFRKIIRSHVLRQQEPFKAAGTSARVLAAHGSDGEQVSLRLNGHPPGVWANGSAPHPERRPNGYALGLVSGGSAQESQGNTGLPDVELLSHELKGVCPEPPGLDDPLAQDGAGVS
Structure (SMILES),"Ki [1, 4]","Ki [2, 5]",further results
N#Cc1c(-c2ccccc2)nc(N)nc1-c1ccccc1 [18a],18.6 ± 3.4 nM,,
N#Cc1c(-c2ccccc2)nc(N)nc1-c1ccsc1 [18aa],20.6 ± 2.7 nM,5.25 ± 2.16 nM,
N#Cc1c(-c2ccccc2)nc(N)nc1-c1ccncc1 [18ab],676 ± 27 nM,216 ± 23 nM,"Ki [2, 6]: 216 nM; Ki [1, 7]: 677 nM"
N#Cc1c(-c2ccccc2)nc(N)nc1-c1cccnc1 [18ac],36.4 ± 5.7 nM,19.6 ± 1.47 nM,
N#Cc1c(-c2ccccc2)nc(N)nc1-c1ccc2ccccc2c1 [18af],5.78 ± 1.16 nM,8.27 ± 2.1 nM,
N#Cc1c(-c2ccccc2)nc(N)nc1-c1ccc(-c2ccccc2)cc1 [18ag],,6500 ± 451 nM,
N#Cc1c(-c2cccc(Cl)c2)nc(N)nc1-c1cccc(Cl)c1 [18ah],35.3 ± 7.7 nM,4.82 ± 0.37 nM,Ki [3]: 73.6 ± 6.8 nM
N#Cc1c(-c2cccc(Cl)c2)nc(N)nc1-c1cc(Cl)cc(Cl)c1 [18ai],190 ± 22 nM,7.81 ± 1.43 nM,
N#Cc1c(-c2cccc(Cl)c2)nc(N)nc1-c1ccc2c(c1)OCO2 [18aj],101 ± 15 nM,5.61 ± 0.74 nM,"Ki [3]: 386 ± 15 nM; Ki [1, 7]: 102 nM"
N#Cc1c(-c2ccc(F)cc2)nc(N)nc1-c1ccc2c(c1)OCO2 [18ak],61 ± 4.9 nM,12.5 ± 2.3 nM,
COc1ccc(-c2nc(N)nc(-c3ccc(OC)cc3)c2C#N)cc1 [18al],,74.3 ± 3.4 nM,
N#Cc1c(-c2ccc(F)cc2)nc(N)nc1-c1ccco1 [18am],5.72 ± 0.26 nM,9.08 ± 1.16 nM,Ki [3]: 13.9 ± 3.7 nM
N#Cc1c(-c2ccccc2)nc(N)nc1-c1ccccc1F [18b],17.6 ± 2.8 nM,6.44 ± 1.25 nM,
COc1ccccc1-c1nc(N)nc(-c2ccccc2)c1C#N [18d],17.7 ± 2.1 nM,13.1 ± 3.2 nM,
N#Cc1c(-c2ccccc2)nc(N)nc1-c1cccc(F)c1 [18e],19.5 ± 3.3 nM,13.4 ± 4.1 nM,Ki [3]: 186 ± 11 nM
N#Cc1c(-c2ccccc2)nc(N)nc1-c1cccc(Cl)c1 [18f],15.5 ± 2.4 nM,4.25 ± 1.1 nM,Ki [3]: 177 ± 13 nM
N#Cc1cccc(-c2nc(N)nc(-c3ccccc3)c2C#N)c1 [18i],84.1 ± 11.7 nM,6.49 ± 1.14 nM,
N#Cc1c(-c2ccccc2)nc(N)nc1-c1ccc(F)cc1 [18j],16.3 ± 2.9 nM,4.19 ± 1.16 nM,
N#Cc1c(-c2ccccc2)nc(N)nc1-c1ccc(Br)cc1 [18k],21.9 ± 5 nM,9.19 ± 2.81 nM,
COc1ccc(-c2nc(N)nc(-c3ccccc3)c2C#N)cc1 [18l],46 ± 3.2 nM,7.16 ± 2.03 nM,
N#Cc1c(-c2ccccc2)nc(N)nc1-c1ccc(O)cc1 [18m],26.5 ± 1.6 nM,4.14 ± 0.55 nM,
Cc1ccc(-c2nc(N)nc(-c3ccccc3)c2C#N)cc1 [18n],8.93 ± 0.12 nM,5.38 ± 1.36 nM,
N#Cc1c(-c2ccccc2)nc(N)nc1-c1ccc(F)cc1F [18o],15.5 ± 2.21 nM,4 ± 1.82 nM,
COc1ccc(-c2nc(N)nc(-c3ccccc3)c2C#N)c(OC)c1 [18q],10.2 ± 1.83 nM,3.98 ± 0.74 nM,
N#Cc1c(-c2ccccc2)nc(N)nc1-c1cc(Cl)cc(Cl)c1 [18s],95.4 ± 16.5 nM,15.9 ± 2.11 nM,
N#Cc1c(-c2ccccc2)nc(N)nc1-c1ccc2c(c1)OCO2 [18u],10.2 ± 1.09 nM,,Ki [3]: 43.3 ± 4.2 nM
COc1cc(-c2nc(N)nc(-c3ccccc3)c2C#N)cc(OC)c1OC [18v],0.95 ± 0.07 nM,2.58 ± 0.05 nM,
N#Cc1c(-c2ccccc2)nc(N)nc1-c1ccoc1 [18z],52.1 ± 5.1 nM,18.7 ± 3.4 nM,

Structure (SMILES),"Ki [1, 4]","Ki [2, 5]",further results
CNc1nc(-c2ccccc2)c(C#N)c(-c2ccccc2)n1 [19a],711 ± 43 nM,9.14 ± 2.21 nM,Exp relative binding affinity (ΔΔGbind) ([2]; Lig 2 relative to Lig 1 = 19ad): -0.66 kcal/mol; Exp absolute binding affinity (ΔGbind) [2]: -10.96 kcal/mol
CNc1nc(-c2ccccc2)c(C#N)c(-c2ccc(OC)cc2)n1 [19ab],,57.5 ± 2.7 nM,Exp absolute binding affinity (ΔGbind) [2]: -9.87 kcal/mol
COc1ccc(-c2nc(Nc3ccccc3)nc(-c3ccccc3)c2C#N)cc1 [19ac],51.4 ± 3.7 nM,,Ki [3]: 186 ± 15 nM
CNc1nc(-c2ccccc2)c(C#N)c(-c2ccc(C)cc2)n1 [19ad],,28 ± 9.3 nM,Exp absolute binding affinity (ΔGbind) [2]: -10.30 kcal/mol; Ki [3]: 474 ± 32 nM
Cc1ccc(-c2nc(Nc3ccccc3)nc(-c3ccccc3)c2C#N)cc1 [19ae],157 ± 16 nM,37.9 ± 5.7 nM,"Ki [1, 7]: 158 nM"
CCNc1nc(-c2ccccc2)c(C#N)c(-c2cc(Cl)cc(Cl)c2)n1 [19ak],,135 ± 20 nM,"Ki [2, 6]: 136 nM"
COc1cc(OC)cc(-c2nc(Nc3ccccc3)nc(-c3ccccc3)c2C#N)c1 [19an],17.3 ± 1.9 nM,,Ki [3]: 64 ± 9.6 nM
CNc1nc(-c2ccccc2)c(C#N)c(-c2cc(OC)c(OC)c(OC)c2)n1 [19ar],3.63 ± 0.88 nM,11.7 ± 3.1 nM,
COc1cc(-c2nc(Nc3ccccc3)nc(-c3ccccc3)c2C#N)cc(OC)c1OC [19as],15.8 ± 3.7 nM,76.5 ± 9.1 nM,
CNc1nc(-c2ccccc2)c(C#N)c(-c2ccco2)n1 [19at],401 ± 25 nM,6.66 ± 2.4 nM,"Exp relative binding affinity (ΔΔGbind) ([2]; Lig 2 relative to Lig 1 = 19a): -0.19 kcal/mol; Exp relative binding affinity (ΔΔGbind) ([2]; Lig 2 relative to Lig 1 = 19ax): -4.33 kcal/mol; Exp absolute binding affinity (ΔGbind) [2]: -11.15 kcal/mol; Ki [1, 7]: 402 nM"
N#Cc1c(-c2ccccc2)nc(Nc2ccccc2)nc1-c1cccs1 [19aw],330 ± 27 nM,42.3 ± 4.6 nM,
CNc1nc(-c2ccccc2)c(C#N)c(-c2ccoc2)n1 [19ax],,,Exp absolute binding affinity (ΔGbind) [2]: -6.82 kcal/mol
N#Cc1c(-c2ccccc2)nc(Nc2ccccc2)nc1-c1ccoc1 [19ay],368 nM,,
CCNc1nc(-c2ccccc2)c(C#N)c(-c2ccccc2)n1 [19b],357 ± 21 nM,5.82 ± 1.16 nM,
N#Cc1c(-c2ccccc2)nc(Nc2ccccc2)nc1-c1ccsc1 [19ba],102 ± 27 nM,,
CNc1nc(-c2ccccc2)c(C#N)c(-c2ccncc2)n1 [19bb],,56.9 ± 6.7 nM,Exp relative binding affinity (ΔΔGbind) ([2]; Lig 2 relative to Lig 1 = 19a): 1.08 kcal/mol; Exp absolute binding affinity (ΔGbind) [2]: -9.88 kcal/mol
N#Cc1c(-c2ccccc2)nc(Nc2ccccc2)nc1-c1cccnc1 [19bf],27.1 ± 5.7 nM,,Ki [3]: 29.4 ± 4 nM
N#Cc1c(-c2ccccc2)nc(Nc2ccccc2)nc1-c1ccccc1 [19c],55.1 ± 4.3 nM,45.6 ± 6.7 nM,
CNc1nc(-c2ccccc2)c(C#N)c(-c2ccccc2F)n1 [19d],,29.5 ± 2.3 nM,Exp relative binding affinity (ΔΔGbind) ([2]; Lig 2 relative to Lig 1 = 19a): 0.69 kcal/mol; Exp absolute binding affinity (ΔGbind) [2]: -10.27 kcal/mol; Ki [3]: 47.8 ± 3.8 nM
CNc1nc(-c2ccccc2)c(C#N)c(-c2cccc(F)c2)n1 [19j],,28.5 ± 2.7 nM,Exp relative binding affinity (ΔΔGbind) ([2]; Lig 2 relative to Lig 1 = 19a): 0.67 kcal/mol; Exp relative binding affinity (ΔΔGbind) ([2]; Lig 2 relative to Lig 1 = 19s): 1.34 kcal/mol; Exp relative binding affinity (ΔΔGbind) ([2]; Lig 2 relative to Lig 1 = 19v): 0.12 kcal/mol; Exp absolute binding affinity (ΔGbind) [2]: -10.29 kcal/mol; Ki [3]: 358 ± 27 nM
CCNc1nc(-c2ccccc2)c(C#N)c(-c2cccc(Cl)c2)n1 [19m],295 ± 27 nM,5.1 ± 1.8 nM,
N#Cc1c(-c2ccccc2)nc(Nc2ccccc2)nc1-c1cccc(Cl)c1 [19n],46.3 ± 2.5 nM,,
CNc1nc(-c2ccccc2)c(C#N)c(-c2cccc(O)c2)n1 [19o],105 ± 8 nM,2.48 ± 0.71 nM,
CNc1nc(-c2ccccc2)c(C#N)c(-c2cccc(OC)c2)n1 [19q],82.6 ± 4.9 nM,13.2 ± 4.1 nM,
COc1cccc(-c2nc(Nc3ccccc3)nc(-c3ccccc3)c2C#N)c1 [19r],133 ± 11 nM,95.5 ± 11.7 nM,
N#Cc1cccc(-c2nc(Nc3ccccc3)nc(-c3ccccc3)c2C#N)c1 [19u],,18.2 ± 3.1 nM,Ki [3]: 16.4 ± 2.2 nM
N#Cc1c(-c2ccccc2)nc(Nc2ccccc2)nc1-c1ccc(F)cc1 [19w],,36.3 ± 4.1 nM,Ki [3]: 51.7 ± 3.1 nM
